Test results reported in US20240279687A1, “PEPTIDE NUCLEIC ACIDS FOR SPATIOTEMPORAL CONTROL OF CRISPR-CAS BINDING” (Yale University, priority 2021, published 2024).
{Lys} = L-lysine residue attached to the PNA terminus

What was measured:
[1] = test system: Cas9 RNP (FANCF, EMX1, ZSCAN2, CCR5, VEGFA gRNAs); assay: On-target specificity of Cas9 RNP (ratio of on-target to off-target editing rates); format: cell-based, human
Description: (§1) For PNA pre-treatments, 1×10^6 cells and 1 μL of PNA diluted to desired concentration in water were similarly nucleofected using Lonza cell line kits and 4D-Nucleofector. PNA nucleofected cells were resuspended in 1.25 mL of complete media in 1.5 mL tubes and incubated at 37° C. for 2 hours before Cas9 RNP nucleofection as described above. After Cas9 RNP nucleofection cells were seeded in 2 mL of complete media and incubated for 96 hours prior to harvesting and analysis.
(§2) Genomic DNA was purified from 0.5×10^6 cells using Promega ReliaPrep gDNA Tissue Miniprep System (A2052) and eluted in 50 μL of water. Library prep used 100 ng of gDNA input with Ampliseq for Illumina Library Plus kit (20019101, Illumina) and used a custom primer pool designed to amplify a designed panel of genomic targets of interest (Table 9). Libraries were indexed, pooled, and loaded onto a Mid-output (300-cycles, Illumina, FC-420-1004) cartridge for paired-end sequencing on an Illumina Miniseq instrument. FASTQ reads were subjected to quality analysis (Basespace FASTQC) and analyzed for indel frequency using Cas-Analyzer assessment tool (parameters: Comparison range (R)—both ends of full amplicon sequence, Minimum frequency (n)=1). gRNAs used in this study are listed in Table 8, amplicon genomic coordinates listed in Table 9.
In the case of EMX1 ON and OFF target amplicons, both regions were amplified from 200 ng of purified gDNA by Phusion High-Fidelity Polymerase (NEB, M0530S) and pooled and purified using QIAGEN PCR purification kit (28104, Qiagen). Library prep used 200 ng of purified amplicon input with Illumina DNA Prep kit (20025519, Illumina). EMX1 libraries were similarly indexed, pooled, sequenced, and analysed as above.
For pre-annealed PAM-distal PNA experiments, 50 pmol of sgRNA and 50 pmol of PAM-distal 10mer PNAs were incubated in a thermocycler at 37° C. for 30 minutes in a 5 μL reaction in 1×3.1 Buffer (B7203S, NEB) to allow annealing. PNA annealing to sgRNAs was confirmed by gel shift on 5% polyacrylamide gel. 45 pmol of SpCas9 (CP02, PNA BIO) was then added at room temperature and incubated for 10 minutes to allow RNP formation. Resulting reaction was delivered to 1×10^6 K562 cells by a single nucleofection and treated as described above.

[2] = test system: Cas9 RNP, ZSCAN2 sgRNA, ZSCAN2 ON site; assay: ZSCAN2 on-target editing in K562 cells (amplicon sequencing); format: cell-based, human; details: PNA pre-treatment 2 hours before Cas9 RNP (FIG. 10A: 50 pmol PNA)
Description: (§3) For Cas9 RNP assembly, 50 pmol of sgRNA (IDT, Alt-R CRISPR-Cas9 sgRNA) and 45 pmol of SpCas9 (CPO2, PNA BIO) were incubated at room temperature for 10 minutes in a 5 μL reaction in 1×3.1 Buffer (B7203S, NEB). For nucleofections, 1×10^6 cells, 5 μL Cas9 RNP, and 1 μL of Alt-R Cas9 electroporation enhancer (IDT) were resuspended in 100 μL of Lonza cell line solution (V4XC-2024/V4XC-1024, Lonza) and nucleofected using a Lonza 4D-Nucleofector X unit. Cas9 RNP treated cells were seeded in 2 mL of complete media and incubated for 96 hours prior to harvesting for analysis.
as §1, with “After Cas9 RNP nucleofection cells were seeded in 2 mL of complete media and incubated for 96 hours prior to harvesting and analysis.” left out
(§4) Genomic DNA was purified from 0.5×10^6 cells using Promega ReliaPrep gDNA Tissue Miniprep System (A2052) and eluted in 50 μL of water. […] FASTQ reads were subjected to quality analysis (Basespace FASTQC) and analyzed for indel frequency using Cas-Analyzer assessment tool (parameters: Comparison range (R)—both ends of full amplicon sequence, Minimum frequency (n)=1). gRNAs used in this study are listed in Table 8, amplicon genomic coordinates listed in Table 9.

[3] = test system: Cas9 RNP, ZSCAN2 sgRNA, ZSCAN2 off-target site; assay: ZSCAN2 off-target editing in K562 cells (amplicon sequencing); format: cell-based, human; details: PNA pre-treatment 2 hours before Cas9 RNP (FIG. 10A: 50 pmol PNA)
Description: as §3
as §1, with “After Cas9 RNP nucleofection cells were seeded in 2 mL of complete media and incubated for 96 hours prior to harvesting and analysis.” left out
as §4

[4] = test system: Cas9 RNP, FANCF sgRNA, FANCF ON site; assay: FANCF on-target editing in K562 cells (amplicon sequencing); format: cell-based, human
Description: as §3, with “analysis. […]” for “analysis.”
as §4
(§5) 10^6 K562 cells were nucleofected (Lonza 4D Nucleofector) with specified dose (0-150 pmol) of FANCF PAM-distal 10mer PNA. […] Sequencing data was analyzed for indel frequency using a validated Cas-Analyzer tool (Park, et al., Bioinformatics 33, 286-288 (2017)).

[5] = test system: Cas9 RNP, FANCF sgRNA, FANCF OT1 site; assay: FANCF off-target editing in K562 cells (amplicon sequencing); format: cell-based, human
Description: as §3, §1
as §2, with “Libraries were indexed, pooled, and loaded onto a Mid-output (300-cycles, Illumina, FC-420-1004) cartridge for paired-end sequencing on an Illumina Miniseq instrument.” left out
as §5

[6] = test system: Cas9 RNP using a sgRNA targeted to the BFP gene; assay: Cas9 RNP editing of BFP reporter gene in K562-BFP cells (BFP fluorescent drop out, flow cytometry); format: cell-based, human
Description: as §3, §1
K562 cells were spun down and resuspended in fresh complete media at 300,000 cells/mL 48 hours prior to analysis. Samples for flow cytometry were fixed in complete media with 1% formaldehyde for 15 minutes before spinning down, resuspending in 300 μL PBS, and filtering through a cell strainer capped tube. Samples were analyzed for BFP and GFP fluorescence using a Cytoflex LX instrument (Beckman Coulter) using PacificBlue and FITC lasers, respectively, and quantification and gating was done using FloJo v10 software. Background fluorescent drop out was determined by measurement of mock nucleofected lines in quadruplicate and subtracted from experimental values to determine reported editing frequency.
10^6 stable BFP-expressing K562 cells were nucleofected (Lonza 4D Nucleofector) with a specified dose of PNA or ssDNA oligo (0-250 pmol). Two hours later, all conditions were nucleofected with 45 pmol of purified Cas9 RNP using a sgRNA targeted to the BFP gene. 72 hours later, cells with BFP fluorescent drop out (via Cas9 indel formation) were quantified by flow cytometry (Beckman Coulter—Cytoflex instrument).
In time-course experiments in FIG. 3D, K562 samples were nucleofected with 5 μL RNP reactions with the addition of 100 pmol of ssODN donor in 1 μL of water. RNP nucleofected samples were incubated at 37° C. in complete media before being spun down and nucleofected with 250 pmol of PNA at specified time points. After PNA delivery cells were seeded in 2 mL of complete media and incubated for 96 hours prior to harvesting and analysis.
10^6 stable BFP-expressing K562 cells were nucleofected (Lonza 4D Nucleofector) with specified dose (0-250 pmol, or 250 pmol if unspecified) of specified PNA with sequences homologous to (antispacer) or identical to (cis-spacer) the BFP gRNA spacer sequence. Two hours later, all conditions were nucleofected with 45 pmol of purified Cas9 RNP using a sgRNA targeted to the BFP gene. 72 hours later, cells with BFP fluorescent drop out (via Cas9 indel formation) were quantified by flow cytometry (Beckman Coulter—Cytoflex instrument).
10^6 stable BFP-expressing K562 cells were nucleofected (Lonza 4D Nucleofector) with 45 pmol of purified Cas9 RNP using a sgRNA targeted to the BFP gene. At each specified time point 250 pmol of BFP Anti-protospacer PNA were introduced via nucleofection. For “Cas9 only” condition there was no second PNA nucleofection and for “0 hrs” 250 pmol of PNA was co-nucleofected with Cas9 in a single reaction. After each nucleofection samples were left in fresh media for the duration of the experiment to acquire edits. 72 hours after the “24 hrs” nucleofection, cells for all conditions with BFP fluorescent drop out (via Cas9 indel formation) were quantified by flow cytometry (Beckman Coulter—Cytoflex instrument).

[7] = test system: 20mer RNA oligonucleotide (spacer sequence designed to target the BFP gene); assay: UV spectroscopy thermal melting analysis of duplexes; format: binding; details: 1 μM each strand, 10 mM sodium phosphate buffer pH 7.4
Description: All samples were prepared by mixing a stoichiometric amount of each strand (1 μM) in 10 mM sodium phosphate buffer at pH 7.4 (Table 8). The samples were pre-annealed at 95° C. for 5 mins and gradually cooled to room temperature prior to the melting experiment. UV melting experiments were performed using a Shimadzu UV-3600 Plus UV-Vis-NIR spectrophotometer equipped with a thermoelectrically controlled multicell holder. UV melting spectra were recorded after every 1° C. temperature change by monitoring the absorbance at 260 nm from 20° C. to 110° C. to 20° C., with a heating/cooling ramp rate of 1.0° C./min. The heating and cooling curves were overlapped to confirm reversible denaturation. All spectra were plotted on Origin 2020 and smoothed using a 20-point adjacent averaging algorithm. The first derivative plots of the melting curves were generated to determine the melting temperature for each duplex.

[8] = test system: BFP sgRNA and BFP Cas9 RNP; assay: sgRNA binding assay (EMSA) with TAMRA dye-labeled PNA, BFP target
Description: (§6) 10 pmol of BFP or HBB sgRNA were incubated with or without 10 pmol of purified Cas9 (Sigma) in 20 μL of 1×NEB buffer 3.1 for 15 minutes at room temp. Then, specified doses of a TAMRA dye labeled antispacer BFP ssPNA was added to each reaction and tubes were incubated in thermocycler for 30 minutes at 37C. 5 μL of resulting reactions were run on pre-cast 5% polyacrylamide TBE gels (BIORAD). The gel was washed in 1×TBE buffer and imaged for TAMRA signal using a Gel Doc XR+ gel imager system (BIORAD). Gel was then incubated in 1×SYBR Gold in TBE for 5 minutes, washed in 1×TBE, and imaged for nucleic acid staining on Gel Doc XR+ imager. Resulting images were superimposed using ImageJ.

[9] = test system: HBB sgRNA and HBB Cas9 RNP; assay: sgRNA binding assay (EMSA) with TAMRA dye-labeled PNA, HBB target; details: heterologous spacer sequence (HBB target)
Description: as §6

[10] = test system: Cas9 RNP, CCR5 R30 sgRNA, CCR2 off-target site; assay: CCR5 gRNA off-target editing in the CCR2 gene in K562 cells (amplicon sequencing); format: cell-based, human; details: PNA pre-treatment 2 hours before Cas9 RNP (FIG. 10A: 50 pmol PNA)
Description: as §3
as §1, with “After Cas9 RNP nucleofection cells were seeded in 2 mL of complete media and incubated for 96 hours prior to harvesting and analysis.” left out
as §4

[11] = test system: Cas9 RNP, CCR5 R30 sgRNA, CCR5 ON site; assay: CCR5 on-target editing in K562 cells (amplicon sequencing); format: cell-based, human; details: PNA pre-treatment 2 hours before Cas9 RNP (FIG. 10A: 50 pmol PNA)
Description: as §3
as §1, with “After Cas9 RNP nucleofection cells were seeded in 2 mL of complete media and incubated for 96 hours prior to harvesting and analysis.” left out
as §4

CTTGCCGCAC (all peptide nucleic acid (PNA); further chemistry not fully specified) [ZSCAN PAMdist 10 mer PNA, 1 Lysine (K) on either end]
overall increase in specificity ([1]; K562 cells, PNA pre-treatment): not observed
decrease of on-target editing [2]: 80.3%
decrease of off-target editing [3]: 66.3%

K-CTTCTGCAGC-K (all peptide nucleic acid (PNA), 5' {Lys}, 3' {Lys}) [FANCF PAM-Distal 10 mer PNA]
specificity ratio versus Cas9 only ([1]; K562, HEK293, and U2OS cell lines, PNA pre-treatment prior to Cas9 RNP nucleofection): significantly increased specificity ratios
specificity versus pre-treatment approaches ([1]; PNA pre-annealed to sgRNA prior to Cas9 RNP formation, delivered as a single complex, K562): further improved specificity
on-target editing ([4]; 50 pmol PNA (98.0% without PNA)): 93.2%
reduction of on-target editing ([4]; 50 pmol, 1:1 PNA:sgRNA ratio): 4.9%
difference in editing reduction, off-target versus on-target ([5]; 50 pmol): 11.6 fold
off-target editing ([5]; 50 pmol PNA (7.13% without PNA)): 3.07%
reduction of off-target editing ([5]; 50 pmol, 1:1 PNA:sgRNA ratio, compared to Cas9 RNP only): 57.1%

KKK-ATGGCGTGCAGTGCTTCAGC-KKK (all peptide nucleic acid (PNA), 5' {Lys}-{Lys}-{Lys}, 3' {Lys}-{Lys}-{Lys}) [BFP Antispacer PNA]
inhibitory effect on Cas9-mediated BFP gene disruption and indel formation ([6]; 0-250 pmol nucleofected 2 hours prior to Cas9 RNP): robust dose-dependent inhibitory effect
block of indel formation (NHEJ) and template-mediated editing (HDR) when PNA is introduced after Cas9 RNP ([6]; 250 pmol PNA at time-points up to 24 hours after Cas9 RNP/ssODN nucleofection): rapidly and proportionally block both indel formation (NHEJ) and template-mediated editing (HDR)
Tm of duplex with RNA spacer sequence [7]: > 100 °C

TAMRA-KKK-ATGGCGTGCAGTGCTTCAGC-KKK (all peptide nucleic acid (PNA); N-terminal TAMRA dye, three lysines flank each end) [TAMRA BFP Antispacer PNA, TAMRA dye conjugated at N-terminus]
additional binding at 20 pmol (2×) doses compared to 10 pmol ([8]; 10 pmol sgRNA, 10 pmol Cas9): no significant additional binding
increase in PNA binding (TAMRA-Cas9 RNP gel bands) between 5 pmol (0.5×) and 10 pmol (1×) conditions ([8]; 10 pmol sgRNA, 10 pmol Cas9): 2.09 fold
PNA-TAMRA signal co-localization with sgRNA and RNP bands ([8]; sequence-matched (BFP target)): strongly co-localized
PNA-TAMRA signal co-localization with sgRNA and RNP bands [9]: not

TCCGCTCTAC (all peptide nucleic acid (PNA); further chemistry not fully specified) [CCR5 PAMdist 10 mer PNA, 1 Lysine (K) on either end]
off-target editing in the CCR2 gene [10]: undetectable
decrease of on-target editing [11]: 79.1%
